Our source for the EC50 and IC50 values is patent publication US20230340011A1 (Asteroid Therapeutics, priority 2022, published 2023).

The target of assay [1] is LXRβ (Homo sapiens (Human), UniProt P55055). As to the kind of experiment: In vitro assay LXRβ: PathHunter NHR CHO cells, LXRβ / Steroid Receptor Co-activator Peptide enzyme fragment complementation. Format: cell-based. Conditions: PathHunter NHR CHO cells, full-length human LXRβ and SRCP, chemiluminescent signal; read-out: LXRβ PPI. In a few lines:
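Enzyme fragment complementation read-out: CHO cells stably expressing ProLink-tagged full-length human LXRβ plus nuclear enzyme acceptor–SRCP fusion, seeded and held overnight at 37° C. Medium with charcoal-dextran filtered serum; final vehicle 1%. Chemiluminescence measured after signal generation.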

In assay [2] the target is SREBP-2 (Homo sapiens (Human), UniProt Q12772). The experiment in a line: In vitro assay SREBP-2: PathHunter U2OS SREBP-2 Nuclear Translocation Cell Line, U18666A-stimulated. Format: cell-based. Conditions: PathHunter U2OS SREBP-2 nuclear translocation cells, U18666A 10 μM, overnight (16 hours).

Sequence of LXRβ (P55055 whole entry, the tested form may be a part): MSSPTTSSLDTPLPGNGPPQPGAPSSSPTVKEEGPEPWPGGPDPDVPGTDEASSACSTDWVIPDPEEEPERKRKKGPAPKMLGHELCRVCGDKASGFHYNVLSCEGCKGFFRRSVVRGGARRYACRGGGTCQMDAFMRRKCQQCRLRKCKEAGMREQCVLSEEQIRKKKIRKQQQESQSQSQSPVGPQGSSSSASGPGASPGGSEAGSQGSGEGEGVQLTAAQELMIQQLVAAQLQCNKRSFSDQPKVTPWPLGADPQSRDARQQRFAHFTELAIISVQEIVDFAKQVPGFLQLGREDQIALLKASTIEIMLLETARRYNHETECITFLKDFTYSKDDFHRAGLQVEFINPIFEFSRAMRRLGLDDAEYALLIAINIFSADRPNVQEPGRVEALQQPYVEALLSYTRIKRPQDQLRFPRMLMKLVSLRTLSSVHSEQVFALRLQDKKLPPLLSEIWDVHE

For the molecule `C[C@@H](NC(=O)C(=O)N(C)C)[C@H]1CC[C@H]2[C@@H]3CC=C4C[C@@H](O)CC[C@]4(C)[C@H]3CC[C@]12C` (single isomer, unassigned) [Example 118], in assay [1], the EC50 was above 10 µM. The molecule further showed a half-inhibitory concentration (IC50) in assay [2] above 10 µM. Consider `C[C@H](CCC(=O)N1CCC(C)(CO)C1)[C@H]1CC[C@H]2[C@@H]3CC=C4C[C@@H](O)CC[C@]4(C)[C@H]3CC[C@]12C` (stereo in doubt) [Example 374, (4R)-4-[(1R,3aS,3bS,7S,9aR,9bS,11aR)-7-hydroxy-9a,11a-dimethyl-1H,2H,3H,3aH,3bH,4H,6H,7H,8H,9H,9aH,9bH,10H,11H,11aH-cyclopenta[a]phenanthren-1-yl]-1-[(3R)-3-(hydroxymethyl)-3-methylpyrrolidin-1-yl]pentan-1-one], for which the EC50 in assay [1] lay in the range of 0.25 to 1 µM. The molecule also yielded a half-inhibitory concentration (IC50) in assay [2] below 0.25 µM. Take `COC(=O)N1CCN(C(=O)CCC[C@H]2CC[C@H]3[C@@H]4CC=C5C[C@@H](O)CC[C@]5(C)[C@H]4CC[C@]23C)CC1` [Example 283]: the EC50 in assay [1] was above 10 µM.

For the molecule `CNS(=O)(=O)C1CCN(C(=O)CC[C@@H](C)[C@H]2CC[C@H]3[C@@H]4CC=C5C[C@@H](O)CC[C@]5(C)[C@H]4CC[C@]23C)CC1` [Example 291, 1-[(4R)-4-[(1R,3aS,3bS,7S,9aR,9bS,11aR)-7-hydroxy-9a,11a-dimethyl-1H,2H,3H,3aH,3bH,4H,6H,7H,8H,9H,9aH,9bH,10H,11H,11aH-cyclopenta[a]phenanthren-1-yl]pentanoyl]-N-methylpiperidine-4-sulfonamide], the EC50 in assay [1] was above 10 µM. For `C[C@H](CCC(=O)N(C)CCc1ccccn1)[C@H]1CC[C@H]2[C@@H]3CC=C4C[C@@H](O)CC[C@]4(C)[C@H]3CC[C@]12C` [Example 293, (4R)-4-[(1R,3aS,3bS,7S,9aR,9bS,11aR)-7-hydroxy-9a,11a-dimethyl-1H,2H,3H,3aH,3bH,4H,6H,7H,8H,9H,9aH,9bH,10H,11H,11aH-cyclopenta[a]phenanthren-1-yl]-N-methyl-N-[2-(pyridin-2-yl)ethyl]pentanamide], in assay [1], the EC50 was 0.25 to 1 µM. On to `CO[C@H]1CCCN(C(=O)CC[C@@H](C)[C@H]2CC[C@H]3[C@@H]4CC=C5C[C@@H](O)CC[C@]5(C)[C@H]4CC[C@]23C)C1` [Example 300, (R)-4-((3S,8S,9S,10R,13R,14S,17R)-3-hydroxy-10,13-dimethyl-2,3,4,7,8,9,10,11,12,13,14,15,16,17-tetradecahydro-1H-cyclopenta[a]phenanthren-17-yl)-1-((S)-3-methoxypiperidin-1-yl)pentan-1-one], for which the EC50 in assay [1] is 0.25 to 1 µM. For the molecule `C[C@H](CCC(=O)N1CCC(Oc2ccncc2)CC1)[C@H]1CC[C@H]2[C@@H]3CC=C4C[C@@H](O)CC[C@]4(C)[C@H]3CC[C@]12C` [Example 301, (4R)-4-[(1R,3aS,3bS,7S,9aR,9bS,11aR)-7-hydroxy-9a,11a-dimethyl-1H,2H,3H,3aH,3bH,4H,6H,7H,8H,9H,9aH,9bH,10H,11H,11aH-cyclopenta[a]phenanthren-1-yl]-1-[4-(pyridin-4-yloxy)piperidin-1-yl]pentan-1-one], the EC50 in assay [1] was above 10 µM. On the same count and under the same terms, as for `C[C@H](CCC(=O)N1CCN(c2ccncn2)CC1)[C@H]1CC[C@H]2[C@@H]3CC=C4C[C@@H](O)CC[C@]4(C)[C@H]3CC[C@]12C` [Example 302, (R)-4-((3S,8S,9S,10R,13R,14S,17R)-3-hydroxy-10,13-dimethyl-2,3,4,7,8,9,10,11,12,13,14,15,16,17-tetradecahydro-1H-cyclopenta[a]phenanthren-17-yl)-1-(4-(pyrimidin-4-yl)piperazin-1-yl)pentan-1-one], the figure is above 10 µM; as for `C[C@H](CCC(=O)N1CCN(c2ncccn2)CC1)[C@H]1CC[C@H]2[C@@H]3CC=C4C[C@@H](O)CC[C@]4(C)[C@H]3CC[C@]12C` [Example 305, (R)-4-((3S,8S,9S,10R,13R,14S,17R)-3-hydroxy-10,13-dimethyl-2,3,4,7,8,9,10,11,12,13,14,15,16,17-tetradecahydro-1H-cyclopenta[a]phenanthren-17-yl)-1-(4-(pyrimidin-2-yl)piperazin-1-yl)pentan-1-one], above 10 µM. Still for that read-out and setting: as for `C[C@H](CCC(=O)N1CCN(c2cccnc2)CC1)[C@H]1CC[C@H]2[C@@H]3CC=C4C[C@@H](O)CC[C@]4(C)[C@H]3CC[C@]12C` [Example 306, (4R)-4-[(1R,3aS,3bS,7S,9aR,9bS,11aR)-7-hydroxy-9a,11a-dimethyl-1H,2H,3H,3aH,3bH,4H,6H,7H,8H,9H,9aH,9bH,10H,11H,11aH-cyclopenta[a]phenanthren-1-yl]-1-[4-(pyridin-3-yl)piperazin-1-yl]pentan-1-one], the figure is above 10 µM.

Regarding `C[C@H](CCC(=O)N1CCN(c2ccccn2)CC1)[C@H]1CC[C@H]2[C@@H]3CC=C4C[C@@H](O)CC[C@]4(C)[C@H]3CC[C@]12C` [Example 307, (R)-4-((3S,8S,9S,10R,13R,14S,17R)-3-hydroxy-10,13-dimethyl-2,3,4,7,8,9,10,11,12,13,14,15,16,17-tetradecahydro-1H-cyclopenta[a]phenanthren-17-yl)-1-(4-(pyridin-2-yl)piperazin-1-yl)pentan-1-one], the EC50 in assay [1] is above 10 µM. Still for that read-out and setting: as for `C[C@H](CCC(=O)N1CCN(C(=O)c2ccnnc2)CC1)[C@H]1CC[C@H]2[C@@H]3CC=C4C[C@@H](O)CC[C@]4(C)[C@H]3CC[C@]12C` [Example 312, (R)-4-((3S,8S,9S,10R,13R,14S,17R)-3-hydroxy-10,13-dimethyl-2,3,4,7,8,9,10,11,12,13,14,15,16,17-tetradecahydro-1H-cyclopenta[a]phenanthren-17-yl)-1-(4-(pyridazine-4-carbonyl)piperazin-1-yl) pentan-1-one], the figure is above 10 µM; as for `C[C@H](CCC(=O)N1CCN(C(=O)C2CC2)CC1)[C@H]1CC[C@H]2[C@@H]3CC=C4C[C@@H](O)CC[C@]4(C)[C@H]3CC[C@]12C` [Example 314, (4R)-4-[(1R,3aS,3bS,7S,9aR,9bS,11aR)-7-hydroxy-9a,11a-dimethyl-1H,2H,3H,3aH,3bH,4H,6H,7H,8H,9H,9aH,9bH,10H,11H,11aH-cyclopenta[a]phenanthren-1-yl]-1-(4-cyclopropanecarbonylpiperazin-1-yl)pentan-1-one], above 10 µM; as for `CC(C)C(=O)N1CCN(C(=O)CC[C@@H](C)[C@H]2CC[C@H]3[C@@H]4CC=C5C[C@@H](O)CC[C@]5(C)[C@H]4CC[C@]23C)CC1` [Example 315, (R)-4-((3S,8S,9S,10R,13R,14S,17R)-3-hydroxy-10,13-dimethyl-2,3,4,7,8,9,10,11,12,13,14,15,16,17-tetradecahydro-1H-cyclopenta[a]phenanthren-17-yl)-1-(4-isobutyrylpiperazin-1-yl)pentan-1-one], above 10 µM. On the same count and under the same terms, for `CC(=O)N1CCC(N(C)C(=O)CC[C@@H](C)[C@H]2CC[C@H]3[C@@H]4CC=C5C[C@@H](O)CC[C@]5(C)[C@H]4CC[C@]23C)CC1` [Example 407, (4R)-4-[(1R,3aS,3bS,7S,9aR,9bS,11aR)-7-hydroxy-9a,11a-dimethyl-1H,2H,3H,3aH,3bH,4H,6H,7H,8H,9H,9aH,9bH,10H,11H,11aH-cyclopenta[a]phenanthren-1-yl]-N-(1-acetylpiperidin-4-yl)-N-methylpentanamide] the value was above 10 µM; for `CC(=O)N1CCN(C(=O)CC[C@@H](C)[C@H]2CC[C@H]3[C@@H]4CC=C5C[C@@H](O)CC[C@]5(C)[C@H]4CC[C@]23C)C[C@@H]1C` [Example 427, (R)-1-((S)-4-acetyl-3-methylpiperazin-1-yl)-4-((3S,8S,9S,10R,13R,14S,17R)-3-hydroxy-10,13-dimethyl-2,3,4,7,8,9,10,11,12,13,14,15,16,17-tetradecahydro-1H-cyclopenta[a]phenanthren-17-yl)pentan-1-one], above 10 µM. The same measure, in the same setting: as for `CC(=O)N1CCN(C(=O)CC[C@@H](C)[C@H]2CC[C@H]3[C@@H]4CC=C5C[C@@H](O)CC[C@]5(C)[C@H]4CC[C@]23C)[C@@H](C)C1` [Example 428, (4R)-4-[(1R,3aS,3bS,7S,9aR,9bS,11aR)-7-hydroxy-9a,11a-dimethyl-1H,2H,3H,3aH,3bH,4H,6H,7H,8H,9H,9aH,9bH,10H,11H,11aH-cyclopenta[a]phenanthren-1-yl]-1-[(2S)-4-acetyl-2-methylpiperazin-1-yl]pentan-1-one], the figure is above 10 µM; as for `COCCNC(=O)OC[C@@H](C)[C@H]1CC[C@H]2[C@@H]3CC=C4C[C@@H](O)CC[C@]4(C)[C@H]3CC[C@]12C` [Example 460, (2S)-2-[(1R,3aS,3bS,7S,9aR,9bS,11aS)-7-hydroxy-9a,11a-dimethyl-1H,2H,3H,3aH,3bH,4H,6H,7H,8H,9H,9aH,9bH,10H,11H,11aH-cyclopenta[a]phenanthren-1-yl]propyl N-(2-methoxyethyl)carbamate], above 10 µM. For `CC(NS(C)(=O)=O)C1CCN(C(=O)CC[C@@H](C)[C@H]2CC[C@H]3[C@@H]4CC=C5C[C@@H](O)CC[C@]5(C)[C@H]4CC[C@]23C)CC1` (stereo partly drawn) [Example 475, N-(1-(1-((R)-4-((3S,8S,9S,10R,13R,14S,17R)-3-hydroxy-10,13-dimethyl-2,3,4,7,8,9,10,11,12,13,14,15,16,17-tetradecahydro-1H-cyclopenta[a]phenanthren-17-yl)pentanoyl)piperidin-4-yl)ethyl)methanesulfonamide], in assay [1], the EC50 is above 10 µM. On the same count and under the same terms, for `CNc1nccc(N2CCN(C(=O)CC[C@@H](C)[C@H]3CC[C@H]4[C@@H]5CC=C6C[C@@H](O)CC[C@]6(C)[C@H]5CC[C@]34C)CC2)n1` [Example 561, (R)-4-((3S,8S,9S,10R,13R,14S,17R)-3-hydroxy-10,13-dimethyl-2,3,4,7,8,9,10,11,12,13,14,15,16,17-tetradecahydro-1H-cyclopenta[a]phenanthren-17-yl)-1-(4-(2-(methylamino)pyrimidin-4-yl)piperazin-1-yl)pentan-1-one] the value was above 10 µM.
